{
  "source": "BigSolDB 2.1",
  "data": [
    {"compound": "Nc1nnn[nH]1", "values": [
      {"measurement": "solubility (mole fraction)", "setting": "in 1,4-dioxane, 288.15 K", "value": 0.0178},
      {"measurement": "solubility (mole fraction)", "setting": "in 1,4-dioxane, 293.15 K", "value": 0.0217},
      {"measurement": "solubility (mole fraction)", "setting": "in 1,4-dioxane, 298.15 K", "value": 0.0267},
      {"measurement": "solubility (mole fraction)", "setting": "in 1,4-dioxane, 303.15 K", "value": 0.0328},
      {"measurement": "solubility (mole fraction)", "setting": "in 1,4-dioxane, 308.15 K", "value": 0.0393},
      {"measurement": "solubility (mole fraction)", "setting": "in 1,4-dioxane, 313.15 K", "value": 0.0463},
      {"measurement": "solubility (mole fraction)", "setting": "in 1,4-dioxane, 318.15 K", "value": 0.0551},
      {"measurement": "solubility (mole fraction)", "setting": "in 1,4-dioxane, 323.15 K", "value": 0.0652},
      {"measurement": "solubility (mole fraction)", "setting": "in DMF, 283.15 K", "value": 0.0284},
      {"measurement": "solubility (mole fraction)", "setting": "in DMF, 288.15 K", "value": 0.0326},
      {"measurement": "solubility (mole fraction)", "setting": "in DMF, 293.15 K", "value": 0.038},
      {"measurement": "solubility (mole fraction)", "setting": "in DMF, 298.15 K", "value": 0.0437},
      {"measurement": "solubility (mole fraction)", "setting": "in DMF, 303.15 K", "value": 0.0493},
      {"measurement": "solubility (mole fraction)", "setting": "in DMF, 308.15 K", "value": 0.0559},
      {"measurement": "solubility (mole fraction)", "setting": "in DMF, 313.15 K", "value": 0.0628},
      {"measurement": "solubility (mole fraction)", "setting": "in DMF, 318.15 K", "value": 0.0707},
      {"measurement": "solubility (mole fraction)", "setting": "in DMF, 323.15 K", "value": 0.0795},
      {"measurement": "solubility (mole fraction)", "setting": "in NMP, 283.15 K", "value": 0.0223},
      {"measurement": "solubility (mole fraction)", "setting": "in NMP, 288.15 K", "value": 0.0265},
      {"measurement": "solubility (mole fraction)", "setting": "in NMP, 293.15 K", "value": 0.0312},
      {"measurement": "solubility (mole fraction)", "setting": "in NMP, 298.15 K", "value": 0.0366},
      {"measurement": "solubility (mole fraction)", "setting": "in NMP, 303.15 K", "value": 0.0432},
      {"measurement": "solubility (mole fraction)", "setting": "in NMP, 308.15 K", "value": 0.0502},
      {"measurement": "solubility (mole fraction)", "setting": "in NMP, 313.15 K", "value": 0.0577},
      {"measurement": "solubility (mole fraction)", "setting": "in NMP, 318.15 K", "value": 0.0657},
      {"measurement": "solubility (mole fraction)", "setting": "in NMP, 323.15 K", "value": 0.0741},
      {"measurement": "solubility (mole fraction)", "setting": "in acetone, 283.15 K", "value": 0.000749},
      {"measurement": "solubility (mole fraction)", "setting": "in acetone, 288.15 K", "value": 0.000832},
      {"measurement": "solubility (mole fraction)", "setting": "in acetone, 293.15 K", "value": 0.000916},
      {"measurement": "solubility (mole fraction)", "setting": "in acetone, 298.15 K", "value": 0.00102},
      {"measurement": "solubility (mole fraction)", "setting": "in acetone, 303.15 K", "value": 0.00112},
      {"measurement": "solubility (mole fraction)", "setting": "in acetone, 308.15 K", "value": 0.00123},
      {"measurement": "solubility (mole fraction)", "setting": "in acetone, 313.15 K", "value": 0.00135},
      {"measurement": "solubility (mole fraction)", "setting": "in acetone, 318.15 K", "value": 0.00149},
      {"measurement": "solubility (mole fraction)", "setting": "in acetone, 323.15 K", "value": 0.00162},
      {"measurement": "solubility (mole fraction)", "setting": "in acetonitrile, 283.15 K", "value": 0.000193},
      {"measurement": "solubility (mole fraction)", "setting": "in acetonitrile, 288.15 K", "value": 0.000213},
      {"measurement": "solubility (mole fraction)", "setting": "in acetonitrile, 293.15 K", "value": 0.000235},
      {"measurement": "solubility (mole fraction)", "setting": "in acetonitrile, 298.15 K", "value": 0.000256},
      {"measurement": "solubility (mole fraction)", "setting": "in acetonitrile, 303.15 K", "value": 0.00028},
      {"measurement": "solubility (mole fraction)", "setting": "in acetonitrile, 308.15 K", "value": 0.000304},
      {"measurement": "solubility (mole fraction)", "setting": "in acetonitrile, 313.15 K", "value": 0.000329},
      {"measurement": "solubility (mole fraction)", "setting": "in acetonitrile, 318.15 K", "value": 0.000357},
      {"measurement": "solubility (mole fraction)", "setting": "in acetonitrile, 323.15 K", "value": 0.000385},
      {"measurement": "solubility (mole fraction)", "setting": "in ethanol, 283.15 K", "value": 0.0008},
      {"measurement": "solubility (mole fraction)", "setting": "in ethanol, 288.15 K", "value": 0.000896},
      {"measurement": "solubility (mole fraction)", "setting": "in ethanol, 293.15 K", "value": 0.00099},
      {"measurement": "solubility (mole fraction)", "setting": "in ethanol, 298.15 K", "value": 0.00109},
      {"measurement": "solubility (mole fraction)", "setting": "in ethanol, 303.15 K", "value": 0.00121},
      {"measurement": "solubility (mole fraction)", "setting": "in ethanol, 308.15 K", "value": 0.00133},
      {"measurement": "solubility (mole fraction)", "setting": "in ethanol, 313.15 K", "value": 0.00145},
      {"measurement": "solubility (mole fraction)", "setting": "in ethanol, 318.15 K", "value": 0.0016},
      {"measurement": "solubility (mole fraction)", "setting": "in ethanol, 323.15 K", "value": 0.00175},
      {"measurement": "solubility (mole fraction)", "setting": "in ethyl acetate, 283.15 K", "value": 0.000499},
      {"measurement": "solubility (mole fraction)", "setting": "in ethyl acetate, 288.15 K", "value": 0.000572},
      {"measurement": "solubility (mole fraction)", "setting": "in ethyl acetate, 293.15 K", "value": 0.000649},
      {"measurement": "solubility (mole fraction)", "setting": "in ethyl acetate, 298.15 K", "value": 0.000734},
      {"measurement": "solubility (mole fraction)", "setting": "in ethyl acetate, 303.15 K", "value": 0.000834},
      {"measurement": "solubility (mole fraction)", "setting": "in ethyl acetate, 308.15 K", "value": 0.000943},
      {"measurement": "solubility (mole fraction)", "setting": "in ethyl acetate, 313.15 K", "value": 0.00107},
      {"measurement": "solubility (mole fraction)", "setting": "in ethyl acetate, 318.15 K", "value": 0.00122},
      {"measurement": "solubility (mole fraction)", "setting": "in ethyl acetate, 323.15 K", "value": 0.00139},
      {"measurement": "solubility (mole fraction)", "setting": "in isopropanol, 283.15 K", "value": 0.000762},
      {"measurement": "solubility (mole fraction)", "setting": "in isopropanol, 288.15 K", "value": 0.000853},
      {"measurement": "solubility (mole fraction)", "setting": "in isopropanol, 293.15 K", "value": 0.000946},
      {"measurement": "solubility (mole fraction)", "setting": "in isopropanol, 298.15 K", "value": 0.00105},
      {"measurement": "solubility (mole fraction)", "setting": "in isopropanol, 303.15 K", "value": 0.00116},
      {"measurement": "solubility (mole fraction)", "setting": "in isopropanol, 308.15 K", "value": 0.00128},
      {"measurement": "solubility (mole fraction)", "setting": "in isopropanol, 313.15 K", "value": 0.00141},
      {"measurement": "solubility (mole fraction)", "setting": "in isopropanol, 318.15 K", "value": 0.00154},
      {"measurement": "solubility (mole fraction)", "setting": "in isopropanol, 323.15 K", "value": 0.00169},
      {"measurement": "solubility (mole fraction)", "setting": "in methanol, 283.15 K", "value": 0.000615},
      {"measurement": "solubility (mole fraction)", "setting": "in methanol, 288.15 K", "value": 0.000681},
      {"measurement": "solubility (mole fraction)", "setting": "in methanol, 293.15 K", "value": 0.000764},
      {"measurement": "solubility (mole fraction)", "setting": "in methanol, 298.15 K", "value": 0.000858},
      {"measurement": "solubility (mole fraction)", "setting": "in methanol, 303.15 K", "value": 0.000954},
      {"measurement": "solubility (mole fraction)", "setting": "in methanol, 308.15 K", "value": 0.00106},
      {"measurement": "solubility (mole fraction)", "setting": "in methanol, 313.15 K", "value": 0.00118},
      {"measurement": "solubility (mole fraction)", "setting": "in methanol, 318.15 K", "value": 0.00131},
      {"measurement": "solubility (mole fraction)", "setting": "in methanol, 323.15 K", "value": 0.00147},
      {"measurement": "solubility (mole fraction)", "setting": "in n-butanol, 283.15 K", "value": 0.000455},
      {"measurement": "solubility (mole fraction)", "setting": "in n-butanol, 288.15 K", "value": 0.00051},
      {"measurement": "solubility (mole fraction)", "setting": "in n-butanol, 293.15 K", "value": 0.000577},
      {"measurement": "solubility (mole fraction)", "setting": "in n-butanol, 298.15 K", "value": 0.00066},
      {"measurement": "solubility (mole fraction)", "setting": "in n-butanol, 303.15 K", "value": 0.000755},
      {"measurement": "solubility (mole fraction)", "setting": "in n-butanol, 308.15 K", "value": 0.000869},
      {"measurement": "solubility (mole fraction)", "setting": "in n-butanol, 313.15 K", "value": 0.001},
      {"measurement": "solubility (mole fraction)", "setting": "in n-butanol, 318.15 K", "value": 0.00115},
      {"measurement": "solubility (mole fraction)", "setting": "in n-butanol, 323.15 K", "value": 0.00131},
      {"measurement": "solubility (mole fraction)", "setting": "in n-propanol, 283.15 K", "value": 0.000694},
      {"measurement": "solubility (mole fraction)", "setting": "in n-propanol, 288.15 K", "value": 0.000773},
      {"measurement": "solubility (mole fraction)", "setting": "in n-propanol, 293.15 K", "value": 0.000868},
      {"measurement": "solubility (mole fraction)", "setting": "in n-propanol, 298.15 K", "value": 0.000962},
      {"measurement": "solubility (mole fraction)", "setting": "in n-propanol, 303.15 K", "value": 0.00106},
      {"measurement": "solubility (mole fraction)", "setting": "in n-propanol, 308.15 K", "value": 0.00117},
      {"measurement": "solubility (mole fraction)", "setting": "in n-propanol, 313.15 K", "value": 0.00129},
      {"measurement": "solubility (mole fraction)", "setting": "in n-propanol, 318.15 K", "value": 0.00142},
      {"measurement": "solubility (mole fraction)", "setting": "in n-propanol, 323.15 K", "value": 0.00157},
      {"measurement": "solubility (mole fraction)", "setting": "in toluene, 283.15 K", "value": 0.00135},
      {"measurement": "solubility (mole fraction)", "setting": "in toluene, 288.15 K", "value": 0.00156},
      {"measurement": "solubility (mole fraction)", "setting": "in toluene, 293.15 K", "value": 0.00177},
      {"measurement": "solubility (mole fraction)", "setting": "in toluene, 298.15 K", "value": 0.00201},
      {"measurement": "solubility (mole fraction)", "setting": "in toluene, 303.15 K", "value": 0.00229},
      {"measurement": "solubility (mole fraction)", "setting": "in toluene, 308.15 K", "value": 0.0026},
      {"measurement": "solubility (mole fraction)", "setting": "in toluene, 313.15 K", "value": 0.00295},
      {"measurement": "solubility (mole fraction)", "setting": "in toluene, 318.15 K", "value": 0.00335},
      {"measurement": "solubility (mole fraction)", "setting": "in toluene, 323.15 K", "value": 0.00381}
    ]}
  ]
}
